Laboratory results as given in patent US11168080B2, “Dynamin-1-like protein inhibitors” (Mitobridge, Inc., priority 2017, dated 2021).

Biological target: Drp1 (Homo sapiens (Human), UniProt O00429)
Test: Drp1 Activity Screen: colorimetric (malachite green) GTPase assay
Assay type: biochemical
Details: 1 mM GTP, 20 min at 37° C.; for IC50: GTPase activity, 0.6 μM Drp1 preincubated with 0.1 mg/mL liposomes; for max % inh: max % inhibition of Drp1 GTPase activity, 0.6 μM Drp1, 0.1 mg/mL liposomes
Protocol: The GTPase activity of Drp1 was assayed using a colorimetric assay similar to as described previously by Leonard M. et al. “Robust colorimetric assays for dynamin's basal and stimulated GTPase activities.” Methods Enzymol. […] Briefly, for GTPase assays of purified Drp1 inhibitor samples, 0.6 μM Drp1 preincubated with 0.1 mg/mL liposomes (consisting of 80% soybean lipids/20% cardiolipin) and inhibitor was added to 1 mM GTP in a microtiter plate for 20 min at 37° C. in 4 mM MgCl2, 10 mM Hepes (pH 7.0), 100 mM KCl, 1 mM DTT. Reactions were stopped by diluting with 0.5 mM EDTA. Samples were then incubated with malachite green reagent (1 mM malachite green and 50 mM ammonium molybdate in 1 N HCl), and the absorbance at 650 nm was measured. The reaction rates, IC50 values, and max % inhibition were determined using Excel/GraphPad Prism software.

Chain of Drp1 (O00429 whole entry): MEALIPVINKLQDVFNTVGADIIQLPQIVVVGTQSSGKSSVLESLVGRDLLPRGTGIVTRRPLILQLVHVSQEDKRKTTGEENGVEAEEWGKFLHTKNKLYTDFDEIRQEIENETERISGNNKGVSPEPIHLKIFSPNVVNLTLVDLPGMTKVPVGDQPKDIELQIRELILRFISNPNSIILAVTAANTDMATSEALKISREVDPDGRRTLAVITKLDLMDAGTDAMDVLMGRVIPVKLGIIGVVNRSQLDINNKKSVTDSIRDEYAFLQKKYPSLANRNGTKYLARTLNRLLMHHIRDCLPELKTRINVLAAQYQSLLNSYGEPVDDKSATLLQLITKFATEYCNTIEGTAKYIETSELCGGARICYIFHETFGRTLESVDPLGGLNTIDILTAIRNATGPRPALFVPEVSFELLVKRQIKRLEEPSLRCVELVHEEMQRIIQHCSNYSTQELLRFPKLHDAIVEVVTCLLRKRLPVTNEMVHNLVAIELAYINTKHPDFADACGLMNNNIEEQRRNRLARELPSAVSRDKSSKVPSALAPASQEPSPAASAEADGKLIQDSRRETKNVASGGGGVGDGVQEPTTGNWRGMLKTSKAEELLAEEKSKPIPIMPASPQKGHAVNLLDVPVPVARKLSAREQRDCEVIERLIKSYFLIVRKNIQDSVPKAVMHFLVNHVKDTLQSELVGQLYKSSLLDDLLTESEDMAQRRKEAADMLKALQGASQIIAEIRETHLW

Row | SMILES | IC50 [µM] | max % inh [%]
1 | Cc1cc(C(=O)Nc2ccc(C(=O)O)cc2)n(Cc2cccc(N3CCCCC3)n2)c1 [Compound A-16, 4-(4-methyl-1-((6-(piperidin-1-yl)pyridin-2-yl)methyl)-1H-pyrrole-2-carboxamido)benzoic Acid] | 1.7 | –
2 | Cc1cc(C(=O)NCc2ccccc2)n(Cc2csc(N3CCCCC3)n2)c1 [Compound A-3, N-benzyl-4-methyl-1-((2-(piperidin-1-yl)thiazol-4-yl)methyl)-1H-pyrrole-2-carboxamide] | 4.8 | 70
3 | Cc1cc(C(=O)Nc2ccc(I)cc2)n(Cc2csc(N3CCCCC3)n2)c1 [Compound A-33, N-(4-iodophenyl)-4-methyl-1-((2-(piperidin-1-yl)thiazol-4-yl)methyl)-1H-pyrrole-2-carboxamide] | 4.5 | 34
4 | Cc1cc(C(=O)N[C@H]2CC[C@H](C(=O)O)CC2)n(Cc2csc(N3CCCCC3)n2)c1 [Compound A-13, trans-4-(4-methyl-1-((2-(piperidin-1-yl)thiazol-4-yl)methyl)-1H-pyrrole-2-carboxamido)cyclohexane-1-carboxylic Acid] | 5.5 | –
5 | Cc1cc(C(=O)N[C@H]2CC[C@@H](C(=O)O)CC2)n(Cc2csc(N3CCCCC3)n2)c1 [Compound A-14, cis-4-(4-methyl-1-((2-(piperidin-1-yl)thiazol-4-yl)methyl)-1H-pyrrole-2-carboxamido)cyclohexane-1-carboxylic Acid] | 39 | –
6 | CCN(CC)c1nc(Cn2cc(C)cc2C(=O)Nc2ccc(C(=O)O)cc2)cs1 [Compound A-9, 4-(1-((2-(diethylamino)thiazol-4-yl)methyl)-4-methyl-1H-pyrrole-2-carboxamido)benzoic Acid] | 51 | –
7 | O=C(Nc1ccc(-c2nn[nH]n2)cc1)c1cc(-c2ccccc2)cn1Cc1csc(N2CCCCC2)n1 [Compound A-58, N-(4-(1H-tetrazol-5-yl)phenyl)-4-phenyl-1-((2-(piperidin-1-yl)thiazol-4-yl)methyl)-1H-pyrrole-2-carboxamide] | 2.2 | –
8 | Cc1cc(C(=O)NC2CCCCC2)n(Cc2csc(N3CCCCC3)n2)c1 [Compound A-26, N-cyclohexyl-4-methyl-1-((2-(piperidin-1-yl)thiazol-4-yl)methyl)-1H-pyrrole-2-carboxamide] | 1.7 | –

More lines, main results first:

Row | IC50 [µM] | SMILES | max % inh [%]
9 | 30.5 | Cc1cn(Cc2csc(N3CCCCC3)n2)c(C(=O)Nc2ccc(C(=O)O)cc2)c1C [Compound A-68, 4-(3,4-dimethyl-1-((2-(piperidin-1-yl)thiazol-4-yl)methyl)-1H-pyrrole-2-carboxamido)benzoic acid] | –
10 | 10.3 | Cc1cc(C(=O)Nc2ccncc2)n(Cc2csc(N3CCCCC3)n2)c1 [Compound A-32, 4-methyl-1-((2-(piperidin-1-yl)thiazol-4-yl)methyl)-N-(pyridin-4-yl)-1H-pyrrole-2-carboxamide] | –
11 | 8.7 | Cc1cc(C(=O)Nc2ccccn2)n(Cc2csc(N3CCCCC3)n2)c1 [Compound A-30, 4-methyl-1-((2-(piperidin-1-yl)thiazol-4-yl)methyl)-N-(pyridin-2-yl)-1H-pyrrole-2-carboxamide] | –
12 | 3.9 | Cc1cc(C(=O)Nc2ccc(C(=O)O)cc2)n(Cc2csc(N3CCCCC3C)n2)c1 (centres unmarked) [Compound A-20, 4-(4-methyl-1-((2-(2-methylpiperidin-1-yl)thiazol-4-yl)methyl)-1H-pyrrole-2-carboxamido)benzoic Acid] | –
13 | 17 | Cc1cc(C(=O)Nc2ccc(C(=O)O)nc2)n(Cc2csc(N3CCCCC3)n2)c1 [Compound A-62, 5-(4-methyl-1-((2-(piperidin-1-yl)thiazol-4-yl)methyl)-1H-pyrrole-2-carboxamido)picolinic Acid] | –
14 | 7.8 | Cc1cc(C(=O)Nc2ccc(C(=O)O)cc2F)n(Cc2csc(N3CCCCC3)n2)c1 [Compound A-66, 3-fluoro-4-(4-methyl-1-((2-(piperidin-1-yl)thiazol-4-yl)methyl)-1H-pyrrole-2-carboxamido)benzoic Acid] | –
15 | 4.3 | Cc1cc(C(=O)Nc2ccc(N3CCNC3=O)cc2)n(Cc2csc(N3CCCCC3)n2)c1 [Compound A-43, 4-methyl-N-(4-(2-oxoimidazolidin-1-yl)phenyl)-1-((2-(piperidin-1-yl)thiazol-4-yl)methyl)-1H-pyrrole-2-carboxamide] | –
16 | 11.9 | Cc1cc(C(=O)Nc2ccc(C(=O)O)cc2)n(Cc2nc(N3CCCCC3)sc2C)c1 [Compound A-21, 4-(4-methyl-1-((5-methyl-2-(piperidin-1-yl)thiazol-4-yl)methyl)-1H-pyrrole-2-carboxamido)benzoic Acid] | –
17 | 21.8 | Cc1cc(C(=O)Nc2cc(F)c(O)c(F)c2)n(Cc2csc(N3CCCCC3)n2)c1 [Compound A-24, N-(3,5-difluoro-4-hydroxyphenyl)-4-methyl-1-((2-(piperidin-1-yl)thiazol-4-yl)methyl)-1H-pyrrole-2-carboxamide] | –
18 | > 100 | Nc1cc(C(=O)Nc2ccc(C(=O)O)cc2)n(Cc2csc(N3CCCCC3)n2)c1 [Compound A-53, 4-(4-Amino-1-((2-(piperidin-1-yl)thiazol-4-yl)methyl)-1H-pyrrole-2-carboxamido)benzoic acid] | –
